Experiment [1] has as its system Human skeletal muscle cells. In kind it is cell-based.
A further experiment concerns Large^myd mice. In words: Body weight change and muscle weight of Large^myd mice. In kind it is in vivo. The settings on record: 40 mg/kg body weight daily, not on weekends, 3 months. The procedure: The body weight change and muscle weight of treated Large^myd mice was also evaluated. Large^myd mice (at age of 10 weeks, male:female=1:1) received Compound D2 (40 mg/kg body weight) daily. No treatment on weekends. […] The muscle weight gain for the TA and EDL muscles are summarized below.

The subject of another experiment is human skin cells. The experiment is classed as cell-based.

As for `CCCC(CCC)CO[N+](=O)[O-]` [Compound D2, 2-propylpentyl nitrate], the results for the “calcification (calcium-45 accumulation)” value (in experiment [1]; with human skin cells) were “reduce calcification” and “significant reduction”, respectively. The EDL muscle mass with Large^myd mice (control 0.015 ± 0.001) was found to be 0.017 ± 0.001 gram. This molecule also returned a TA muscle mass in the experiment with Large^myd mice (control 0.048 ± 0.004) of 0.054 ± 0.004 gram. For the same molecule, the Body weight increase in the experiment on Large^myd mice (control 2%) is reported as 13%;.

Values taken from patent US9452117B2 (priority 2011, dated 2016).
